Source: patent US20240374739A1, “BILE ACID CONJUGATE” (Curtin University, priority 2021, published 2024)

Key:
[1] = test system: Neurodegenerated cells (Parkinson's disease model); assay: Adenosine triphosphate (ATP) assay, Parkinson's disease model; format: cell-based, human; settings: PD model; probucol 20 μM, SPQ 10 μM, HA-1 10 μM, L-Dopa 50 μM, 24 hours
Description: (§1) Perinatal tissue derived human stem cell model for Parkinson's disease (PD) was prepared using proprietary protocols to test the effect of new drug entities. Drug treatment was for 24 hours in all the assays.
Impaired energy metabolism and reduced ATP levels are common features of PD. Using the stem cell derived PD model, we measured ATP levels in drug treated (probucol, SPQ and HA-1 and L-Dopa) cells and compared with neurodegenerated (ND) cells.
Neurodegenerated cells were incubated with probucol (20 μM), SPQ (10 μM), HA-1 (10 μM) and L-Dopa (50 μM) for 24 hours (p<0.05; *p<0.05, **p<0.001, ***p<0.0001, ns=non-significant, n=3).

[2] = test system: Neurodegenerated cells (Parkinson's disease model); assay: Immunocytochemical localization of PD specific and neuronal markers; format: cell-based, human; settings: fluorescence micrographs
Description: as §1
For further confirmation and protein localization of neuronal, dopaminergic and PD specific neurodegenerative markers, we performed immunolocalization for synapsin I, Nurr1, TH and α-synuclein respectively.
Fluorescence micrographs of synapsin 1 positive neuronal cells were obtained and the effects of probucol, SPQ and HA-1 on neurodegeneration model with L-Dopa as positive control were compared.
Fluorescence micrographs of Nurr1 positive dopaminergic neuronal cells were obtained and the effects of probucol, SPQ and HA-1 on neurodegeneration model with L-Dopa as positive control were compared.
Fluorescence micrographs of TH positive dopaminergic neuronal cells were obtained and the effects of probucol, SPQ and HA-1 on neurodegeneration model with L-Dopa as positive control were compared.
Fluorescence micrographs of α-synuclein immunolocalization were obtained and the effects of probucol, SPQ and HA-1 on neurodegeneration model with L-Dopa as positive control were compared.

Pancreatic NIT-1 β-cells = assay: MTT viability assay on pancreatic NIT-1 β-cells; format: cell-based; settings: glucose 25.5 mM (hyperglycemic); 10 μM probucol, 10 μM HA-1
Description: Cells were grown and processed in a Dulbecco's Modified Eagle's media with 11.5% foetal bovine serum, as per the protocols described below.
Specifically, the cells were cultured on T-75 cm^2 tissue culture flasks (Thermo Fisher Scientific®, Australia) and fed with Dulbecco's modified Eagle's medium (DMEM) (Gibco, Life Technologies, USA) supplemented with either 5.5 mM glucose or 25.5 mM glucose (Sigma Chemical Co, USA), 11.5% fetal bovine serum (Thermo Fisher Scientific, Australia), and 5% penicillin-streptomycin (Thermo Fisher Scientific, Australia). The β-cells were incubated in an environment of 5% CO2 in humidified air at 37° C. using a Nuaire NU-8500 Water Jacket CO2 Incubator (Nuaire, USA) for 72 hours.
The MTT assay for cellular mitochondrial activity is a common and an important analytical technique for determining the degree of cell viability and biological activity. Briefly, MTT was prepared as 5 mg/ml stock solution (Sigma Chemical CO, USA) in phosphate buffer, at pH 7.4 (Thermo Fisher Scientific, Australia). The undissolved residues were removed by sterile filtration. The stock solution was stored in a sterile environment at 4° C. in the dark and used within 7 days of preparation. […] Formazan was dissolved in 100 μl of dimethyl sulfoxide (DMSO) (Sigma Chemical CO, USA) via reverse pipetting and the resultant purple solution was analysed photometrically at 550 nm.

diabetic db/db mice [3] = assay: Novel Object Recognition Test in diabetic db/db mice (Experimental Example 5); format: in vivo; settings: at 14 weeks of age
Description: Cognitive function in diabetic db/db mice was tested with Passive Avoidance and Novel Object Recognition tests. For both tests, the higher the value, the better the memory.
The mice were administered with either probucol, HA-1 or apoCIII antisense from 5 weeks of age, and cognitive performance was tested at 14 weeks of age.

diabetic db/db mice [4] = assay: Plasma amyloid-β (Aβ40, Aβ42, oligomers, Aβ42/40 ratio) in diabetic db/db mice; format: in vivo
Description: In this study, 4-5 week old diabetic db/db mice were put onto a diet containing probucol 0.1% (w/w) or HA-1 0.2% (w/w) for either 10 or 24 weeks, till the age of 14 or 28 weeks, respectively. Passive avoidance test was used to assess short-term memory. Subsequently, the mice were sacrificed to obtain plasma and brain tissue samples for further analyses. […]

OC-1 cells = assay: Cobalt chloride hypoxia assay; format: cell-based; settings: cells pre-treated with CoCl2 at 100 μM for 24 hours, microscopic examination
Description: This assay is used to determine whether an intervention can reverse hypoxic-induced cell death brought about by cobalt chloride. For this assay, cells are pre-treated with CoCl2 at 100 μM for 24 hours, followed by microscopic examination of cell morphology and viability.

[5] = test system: Amniotic membrane mesenchymal stem cells (AM-MSCs); assay: Cytotoxicity study by MTT cell viability assay; format: cell-based, human; settings: 10-30 μM, 24 hours
Description: (§2) Amniotic membrane mesenchymal stem cells (AM-MSCs) were incubated with different concentrations (10, 15, 20, 25 and 30 uM, and DMSO control) of (A) probucol, (B) SPQ, (C) HA-1, and (D) DMSO for 24 hours. D1=DMSO control for 10 μM, D2=DMSO control for 20 μM (p<0.05; *p<0.05, **p<0.001, ***p<0.0001, ns=non-significant, n=3).
as §2, with “HA-1 and,” for “HA-1, and”

[6] = Experimental Example 1 (FIG. 1)
[7] = Experimental Example 2 (FIG. 8)

SMILES	ATP level [1]	Nurr1 (immunolocalization) [2]	TH (immunolocalization) [2]	accumulation of α-synuclein (immunolocalization) [2]	synapsin protein expression (immunolocalization) [2]	NIT-1 cell viability (Pancreatic NIT-1 β-cells)	Novel Object Recognition Test preference index (diabetic db/db mice [3])	Aβ42/40 ratio (diabetic db/db mice [4]; 14 weeks of age)	plasma Aβ40 (diabetic db/db mice [4]; 14 weeks of age)	plasma Aβ42 (diabetic db/db mice [4]; 14 weeks of age)	plasma concentrations of Aβ oligomers (diabetic db/db mice [4]; 14 weeks of age)	Aβ42/40 ratio (diabetic db/db mice [4]; 28 weeks of age)	plasma Aβ40 (diabetic db/db mice [4]; 28 weeks of age)	plasma Aβ42 (diabetic db/db mice [4]; 28 weeks of age)	plasma concentrations of Aβ oligomers (diabetic db/db mice [4]; 28 weeks of age)	cell morphology (OC-1 cells)	cytotoxicity by MTT cell viability assay [5, 6]	cytotoxicity by MTT cell viability assay [5, 7]
CC(=O)O[C@@H]1CC[C@@]2(C)[C@H](CC[C@@H]3[C@@H]2CC[C@]2(C)[C@@H]([C@H](C)CCC(=O)Oc4c(C(C)(C)C)cc(SC(C)(C)Sc5cc(C(C)(C)C)c(O)c(C(C)(C)C)c5)cc4C(C)(C)C)CC[C@@H]32)C1 [HA-1, 2,6-di-tert-butyl-4-((2-((3,5-di-tert-butyl-4-hydroxyphenyl)thio)propan-2-yl)thio)phenyl (4R)-4-[(3R,5R,8R,9S,10S,13R,14S,17R)-3-acetoxy-10,13-dimethyl-2,3,4,5,6,7,8,9,11,12,14,15,16,17-tetradecahydro-1H-cyclopenta[a]phenanthren-17-yl]pentanoate]	Enhanced increase in ATP levels	more pronounced	more pronounced	least expression	clear restoration of synapsin expression	even more profound effect on ameliorating cell death	no significant effects	remarkably reduced	did not change plasma Aβ40 levels	remarkably attenuated	significantly reduced	remarkably reduced	increased plasma Aβ40 levels	significantly reduced	significantly reduced	optimal morphology	–	–
CC1(C)SC2(C=C(C(C)(C)C)C(=O)C(C(C)(C)C)=C2)C2(C=C(C(C)(C)C)C(=O)C(C(C)(C)C)=C2)S1 [SPQ, 2,4,9,11-tetrakis(1,1-dimethylethyl)-14,14-dimethyl-13,15-dithiadispiro[5.0.5.3]pentadeca-1,4,8,11-tetraene-3,10-dione]	Enhanced increase in ATP levels	more pronounced	more pronounced	–	clear restoration of synapsin expression	–	–	–	–	–	–	–	–	–	–	–	not toxic to the cells	not toxic to the cells
CC(C)(Sc1cc(C(C)(C)C)c(O)c(C(C)(C)C)c1)Sc1cc(C(C)(C)C)c(O)c(C(C)(C)C)c1 [probucol, 2,6-ditert-butyl-4-[2-(3,5-ditert-butyl-4-hydroxyphenyl)sulfanylpropan-2-ylsulfanyl]phenol]	–	more pronounced	more pronounced	–	clear restoration of synapsin expression	partially offset hyperglycaemia-induced pancreatic beta cell death	no significant effects	–	did not change plasma Aβ40 levels	no beneficial effect	not observed	–	–	–	not observed	normal morphology	not toxic to the cells	not toxic to the cells
